Test results as given in paper PMC12586667 (Scientific Reports, 2025).

Legend:
CYP2D6 = CYP2D6 (Homo sapiens, UniProt P10635); assay: CYP2D6 activity on chip by quantifying 1-OH bufuralol; assay type: in vitro ADME
[1] = Stability of metabolite in medium containing 10% FBS; assay type: in vitro ADME; details: could not be measured
[2] = coadministration; cited from earlier work
CYP2C9 = CYP2C9 (Homo sapiens, UniProt P11712); assay: CYP2C9 activity on chip by quantifying 4-OH diclofenac; assay type: in vitro ADME
CYP2C9, sequence (P11712 whole entry): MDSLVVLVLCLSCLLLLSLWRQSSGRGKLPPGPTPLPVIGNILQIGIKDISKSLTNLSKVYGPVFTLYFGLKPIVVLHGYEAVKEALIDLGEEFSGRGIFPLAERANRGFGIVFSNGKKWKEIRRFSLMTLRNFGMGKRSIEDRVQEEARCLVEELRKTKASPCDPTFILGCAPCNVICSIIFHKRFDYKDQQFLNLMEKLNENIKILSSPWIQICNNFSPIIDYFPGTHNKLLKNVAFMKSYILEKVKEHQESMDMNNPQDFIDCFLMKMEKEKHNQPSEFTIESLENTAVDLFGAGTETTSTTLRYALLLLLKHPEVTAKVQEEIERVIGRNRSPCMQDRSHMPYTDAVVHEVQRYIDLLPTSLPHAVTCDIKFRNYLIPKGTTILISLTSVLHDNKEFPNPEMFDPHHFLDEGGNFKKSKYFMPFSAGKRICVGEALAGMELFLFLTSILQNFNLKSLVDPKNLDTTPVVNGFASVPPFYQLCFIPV

[3] = model drugs with minimal first-pass effects; cited from earlier work
[4] = Measurement of drug absorption; assay type: physicochemical; details: within 2 h
[5] = test system: WT and genome-edited intestine-liver-on-a-chip (Caco-2 and HepG2 cells); assay: Drug permeability assay; assay type: in vitro ADME, human; details: for drug concentration in the top channel / drug concentration in the bottom channel: WT and genome-edited chips
[6] = test system: intestine-liver-on-a-chip (Caco-2 and HepG2 cells); assay: Lucifer yellow permeability assay; assay type: in vitro ADME, human; details: WT and genome-edited chips vs WT or genome-edited Caco-2 mono-culture
CYP3A4 = CYP3A4 (Homo sapiens, UniProt P08684); assay: CYP3A4 activity on chip by quantifying α-OH triazolam; assay type: in vitro ADME; details: flow conditions
CYP3A4, sequence (P08684 whole entry): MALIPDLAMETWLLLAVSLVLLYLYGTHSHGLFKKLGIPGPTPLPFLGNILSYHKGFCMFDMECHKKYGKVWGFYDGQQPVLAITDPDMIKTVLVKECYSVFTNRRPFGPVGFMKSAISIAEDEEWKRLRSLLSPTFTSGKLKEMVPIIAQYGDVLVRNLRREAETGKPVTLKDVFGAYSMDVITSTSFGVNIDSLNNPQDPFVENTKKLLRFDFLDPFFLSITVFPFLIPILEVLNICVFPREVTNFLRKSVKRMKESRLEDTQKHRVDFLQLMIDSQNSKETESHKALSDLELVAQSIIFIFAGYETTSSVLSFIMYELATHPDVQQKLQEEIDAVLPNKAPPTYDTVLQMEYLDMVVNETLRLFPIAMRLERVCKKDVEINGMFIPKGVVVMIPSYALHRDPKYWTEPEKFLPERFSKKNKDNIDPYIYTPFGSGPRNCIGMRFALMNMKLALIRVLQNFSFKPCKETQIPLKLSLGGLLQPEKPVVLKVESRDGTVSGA

CYP1A2 = molecular target: T1, CYP1A2 (Homo sapiens, UniProt P05177); assay: CYP1A2 activity on chip by quantifying ISOPRO; assay type: in vitro ADME
T1 sequence (P05177 1-516): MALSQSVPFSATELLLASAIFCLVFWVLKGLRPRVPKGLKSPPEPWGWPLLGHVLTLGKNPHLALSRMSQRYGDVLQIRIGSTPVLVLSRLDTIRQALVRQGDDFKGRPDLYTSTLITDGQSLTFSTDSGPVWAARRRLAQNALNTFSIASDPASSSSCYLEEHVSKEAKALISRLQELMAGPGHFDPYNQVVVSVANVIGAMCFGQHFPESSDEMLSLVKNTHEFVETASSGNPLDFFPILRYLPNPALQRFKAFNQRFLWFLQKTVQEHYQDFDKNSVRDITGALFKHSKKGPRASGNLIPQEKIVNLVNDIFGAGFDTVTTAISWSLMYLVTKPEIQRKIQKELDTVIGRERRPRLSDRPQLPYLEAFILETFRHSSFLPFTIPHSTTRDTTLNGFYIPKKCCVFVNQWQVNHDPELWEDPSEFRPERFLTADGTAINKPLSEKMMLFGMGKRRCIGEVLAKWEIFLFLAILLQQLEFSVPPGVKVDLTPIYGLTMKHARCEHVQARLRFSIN

[7] = both static and flow conditions

CYP2D6, sequence (P10635 whole entry): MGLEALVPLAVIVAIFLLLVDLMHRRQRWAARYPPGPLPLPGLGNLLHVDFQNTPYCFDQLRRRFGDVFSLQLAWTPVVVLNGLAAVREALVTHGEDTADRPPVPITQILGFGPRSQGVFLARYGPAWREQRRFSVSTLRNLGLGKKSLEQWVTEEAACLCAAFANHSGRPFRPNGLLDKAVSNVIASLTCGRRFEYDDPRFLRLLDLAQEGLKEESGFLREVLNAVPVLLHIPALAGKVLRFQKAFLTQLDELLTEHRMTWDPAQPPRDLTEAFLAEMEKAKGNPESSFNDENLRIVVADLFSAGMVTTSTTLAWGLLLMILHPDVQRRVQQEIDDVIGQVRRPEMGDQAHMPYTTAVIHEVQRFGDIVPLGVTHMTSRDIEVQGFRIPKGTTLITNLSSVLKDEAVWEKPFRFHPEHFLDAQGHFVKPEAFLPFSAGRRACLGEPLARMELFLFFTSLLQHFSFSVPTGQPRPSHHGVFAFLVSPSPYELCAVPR

1’-hydroxy bufuralol [1-OH bufuralol]
metabolite concentration, genome-edited chip vs WT chip (CYP2D6; flow, top and bottom channels, 24 and 48 h): higher in the genome-edited chip compared to the WT chip
metabolite concentration, flow vs static conditions (CYP2D6; genome-edited chip): higher than that observed in the static conditions

CC(C)NCC(O)COc1ccc(O)c2ccccc12 (centres unmarked) [4-OH propranolol, 4-hydroxy propranolol]
stability [1]: extremely unstable

CCC(C)n1ncn(-c2ccc(N3CCN(c4ccc(OCC5COC(Cn6cncn6)(c6ccc(Cl)cc6Cl)O5)cc4)CC3)cc2)c1=O (centres unmarked) [itraconazole]
effect on the area under the curve (AUC) of triazolam [2]: increase the area under the curve (AUC) of triazolam

O=C(O)Cc1ccccc1Nc1c(Cl)cc(O)cc1Cl [4-OH diclofenac, 4’-hydroxy diclofenac]
metabolite concentration, genome-edited chip vs WT chip (CYP2C9; flow, top and bottom channel, 24 and 48 h): higher in the genome-edited chip Flow compared to the WT chip Flow
metabolite concentration, static vs flow conditions (CYP2C9; top channel of genome-edited chip): higher than that under flow conditions

Cn1c(=O)c2c(ncn2C)n(C)c1=O [caffeine]
oral bioavailability (F) [3]: > 0.7

Cc1nnc2n1-c1ccc(Cl)cc1C(c1ccccc1Cl)=NC2 [triazolam]
adsorption onto the PDMS device [4]: substantially adsorbed
drug concentration in the top channel [5, 7]: rapid decrease in concentration
drug concentration, genome-edited chips vs WT chips ([5]; flow conditions, 24 and 48 h): lower than those in WT chips
drug concentration in the bottom channel ([5]; flow conditions): increased substantially

CCc1cccc2cc(C(O)CNC(C)(C)C)oc12 (centres unmarked) [bufuralol]
adsorption onto the PDMS device [4]: substantially adsorbed
drug concentration, genome-edited chips vs WT chips ([5]; after 48 h): slightly lower in the genome-edited chips than in the WT chips
drug concentration in the top channel [5, 7]: rapid decrease in concentration
drug concentration in the bottom channel ([5]; flow conditions): increased substantially compared to static conditions

CC(=O)Nc1ccc(O)cc1 [APAP, acetaminophen]
oral bioavailability (F) [3]: > 0.7
drug concentration in the top channel, genome-edited chip vs WT chip ([5]; flow conditions, 24 and 48 h): slightly higher than those in the WT chip
drug concentration in the top channel ([5]; flow conditions, 24 and 48 h, 10 μM): decreased compared to the initial concentration of 10 μM
drug concentration in the bottom channel ([5]; flow conditions): increased substantially
drug concentration in the bottom channel ([5]; static conditions, 10 μM): increased in a time-dependent manner
drug concentration in the top channel ([5]; static conditions, 10 μM): remained constant

O=C(O)Cc1ccccc1Nc1c(Cl)cccc1Cl [diclofenac]
drug concentration in the top channel [5, 7]: slightly reduced compared to the initial concentration of 10 μM

CC(C)NCC(O)COc1cccc2ccccc12 (centres unmarked) [propranolol]
adsorption onto the PDMS device [4]: substantially adsorbed
drug concentration in the top channel [5, 7]: rapidly decreased
drug concentration, genome-edited chips vs WT chips ([5]; flow conditions, 24 and 48 h): significantly lower than those in the WT chips
drug concentration in the bottom channel ([5]; flow conditions): increased substantially

Lucifer Yellow CH [LY]
Papp of LY in chips compared to Caco-2 cells mono-culture [6]: lower in both the WT and genome-edited chips

OCc1nnc2n1-c1ccc(Cl)cc1C(c1ccccc1Cl)=NC2 [α-OH triazolam, α-hydroxy triazolam]
metabolite concentration, genome-edited chip vs WT chip (CYP3A4): higher than that observed in the WT chip

NCC(O)COc1cccc2ccccc12 (centres unmarked) [ISOPRO, desisopropylpropranolol]
metabolite concentration in the bottom channel (CYP1A2; flow conditions vs static): increased under flow conditions
metabolite concentration in the top channel (CYP1A2; flow conditions vs static): no change was observed
metabolite concentration, genome-edited chip vs WT chip (CYP1A2; flow, top and bottom channels, 1 μM propranolol): higher in the genome-edited chip under flow conditions compared to the WT chip
time of peak concentration in the bottom channel (CYP1A2; genome-edited chip, flow conditions): 24 h
